In ChEMBL document CHEMBL1649074, “Aurora kinase inhibitors based on the imidazo[1,2-a]pyrazine core: fluorine and deuterium incorporation improve oral absorption and exposure” (J Med Chem, 2011):
Each block holds one compound with its values, some of them ahead of it.

Experiments:
[1] = target: Tyrosine-protein kinase JAK2 (Homo sapiens, UniProt O60674); assay: Inhibition of JAK2
[2] = target: Tyrosine-protein kinase Lck (Homo sapiens, UniProt P06239); assay: Inhibition of LCK
[3] = target: Ribosomal protein S6 kinase alpha-3 (Homo sapiens, UniProt P51812); assay: Inhibition of RSK2
Chain of Ribosomal protein S6 kinase alpha-3 (P51812 whole entry): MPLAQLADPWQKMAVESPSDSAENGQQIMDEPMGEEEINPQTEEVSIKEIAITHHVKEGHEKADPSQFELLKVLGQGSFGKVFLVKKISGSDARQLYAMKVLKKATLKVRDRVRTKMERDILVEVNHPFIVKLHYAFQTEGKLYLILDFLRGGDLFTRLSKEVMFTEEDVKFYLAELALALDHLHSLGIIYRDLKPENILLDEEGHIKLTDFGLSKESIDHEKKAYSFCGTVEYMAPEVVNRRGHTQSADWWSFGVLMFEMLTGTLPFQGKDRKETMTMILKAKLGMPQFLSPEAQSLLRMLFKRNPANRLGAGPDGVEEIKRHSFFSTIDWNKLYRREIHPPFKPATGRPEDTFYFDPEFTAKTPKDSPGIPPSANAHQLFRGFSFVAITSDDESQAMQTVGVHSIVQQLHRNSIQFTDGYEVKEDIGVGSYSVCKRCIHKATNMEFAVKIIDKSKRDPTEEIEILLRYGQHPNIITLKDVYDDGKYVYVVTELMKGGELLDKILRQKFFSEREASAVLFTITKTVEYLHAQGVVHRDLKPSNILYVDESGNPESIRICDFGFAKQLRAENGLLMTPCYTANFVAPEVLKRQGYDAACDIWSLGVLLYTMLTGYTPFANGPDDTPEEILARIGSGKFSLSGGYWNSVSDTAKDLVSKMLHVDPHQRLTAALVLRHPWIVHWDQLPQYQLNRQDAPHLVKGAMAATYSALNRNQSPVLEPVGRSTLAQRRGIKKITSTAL

[4] = (§1) AUC (0 to 24 hrs) in Beagle dog at 10 mg/kg, po; format: ADME, organism-based, Canis lupus familiaris, Plasma; design: time < 24 hr, dose 10 mg/kg, route oral; conditions: beagle, plasma
[5] = Oral bioavailability in Sprague-Dawley rat at 30 mg/kg; format: ADME, organism-based; conditions: in vivo
[6] = (§2) Oral bioavailability in Beagle dog at 10 mg/kg; format: ADME, organism-based, Canis lupus familiaris; conditions: beagle, in vivo
[7] = Oral bioavailability in cynomolgus monkey at 10 mg/kg; format: ADME, organism-based, Macaca fascicularis; conditions: in vivo
[8] = AUC (0 to 24 hrs) in Beagle dog at 0.3 mg/kg, iv; format: ADME, organism-based, Canis lupus familiaris; design: time < 24 hr, dose 0.3 mg/kg, route intravenous; conditions: plasma
[9] = Oral AUC in Sprague-Dawley rat at 30 mg/kg, po; format: ADME, organism-based; design: dose 30 mg/kg, route oral; conditions: in vivo
[10] = Clearance in CD1 mouse at 3 mg/kg, iv; format: ADME, organism-based; design: dose 3 mg/kg, route intravenous; conditions: in vivo
[11] = Oral AUC in Beagle dog at 10 mg/kg, po; format: ADME, organism-based, Canis lupus familiaris; design: dose 10 mg/kg, route oral; conditions: in vivo
[12] = Clearance in Beagle dog at 0.3 mg/kg, iv; format: ADME, organism-based, Canis lupus familiaris; design: dose 0.3 mg/kg, route intravenous; conditions: in vivo
[13] = AUC (0 to 24 hrs) in cynomolgus monkey at 0.3 mg/kg, iv; format: ADME, organism-based, Macaca fascicularis; design: time < 24 hr, dose 0.3 mg/kg, route intravenous; conditions: plasma
[14] = target: Interleukin-1 receptor-associated kinase 4 (Homo sapiens, UniProt Q9NWZ3); assay: Inhibition of IRAK4
Chain of Interleukin-1 receptor-associated kinase 4 (Q9NWZ3 whole entry): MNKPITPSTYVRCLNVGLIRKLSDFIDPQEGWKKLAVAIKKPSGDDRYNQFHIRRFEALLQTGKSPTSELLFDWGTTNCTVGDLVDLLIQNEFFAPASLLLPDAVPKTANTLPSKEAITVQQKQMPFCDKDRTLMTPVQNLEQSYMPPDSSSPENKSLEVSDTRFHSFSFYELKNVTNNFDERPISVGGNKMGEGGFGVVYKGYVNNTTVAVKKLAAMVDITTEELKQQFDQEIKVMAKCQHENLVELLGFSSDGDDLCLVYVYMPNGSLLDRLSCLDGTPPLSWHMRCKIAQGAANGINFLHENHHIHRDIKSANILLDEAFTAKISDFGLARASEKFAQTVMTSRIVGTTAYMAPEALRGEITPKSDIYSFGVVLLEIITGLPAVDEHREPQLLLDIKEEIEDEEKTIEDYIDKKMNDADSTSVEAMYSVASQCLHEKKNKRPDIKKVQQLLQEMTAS

[15] = Clearance in cynomolgus monkey at 0.3 mg/kg, iv; format: ADME, organism-based, Macaca fascicularis; design: dose 0.3 mg/kg, route intravenous; conditions: in vivo
[16] = AUC (0 to 24 hrs) in cynomolgus monkey at 30 mg/kg, po; format: ADME, organism-based, Macaca fascicularis; design: time < 24 hr, dose 30 mg/kg, route oral; conditions: plasma
[17] = Oral AUC in cynomolgus monkey at 10 mg/kg, po; format: ADME, organism-based, Macaca fascicularis; design: dose 10 mg/kg, route oral; conditions: in vivo
[18] = AUC in CD1 mouse at 50 mg/kg, po; format: ADME, organism-based; design: dose 50 mg/kg, route oral; conditions: plasma
[19] = AUC (0 to 24 hrs) in CD1 mouse at 3 mg/kg, iv; format: ADME, organism-based; design: time < 24 hr, dose 3 mg/kg, route intravenous; conditions: plasma
Canis familiaris [20] = assay: AUC (0 to 24 hrs) in Beagle dog at 1 mg/kg, iv; format: ADME, organism-based, Canis lupus familiaris, Plasma; design: time < 24 hr, dose 1 mg/kg, route intravenous; conditions: in vivo
Canis familiaris [21] = assay: as §1; format: ADME, organism-based, Canis lupus familiaris, Plasma; design: time < 24 hr, dose 10 mg/kg, route oral; conditions: in vivo, 24 h
Canis familiaris [22] = assay: as §2; format: ADME, organism-based, Canis lupus familiaris; conditions: in vivo
Mus musculus = assay: Inhibition of Aurora B-mediated histone H3 phosphorylation in nude mouse xenografted with human A2780 cells at 100 mg/kg, po administered as single dose measured 2 hrs; format: functional; conditions: A2780, 2 h
[23] = Clearance in cynomolgus monkey at 1 mg/kg, iv; format: ADME, organism-based, Macaca fascicularis; design: dose 1 mg/kg, route intravenous; conditions: in vivo
[24] = Clearance in Beagle dog at 1 mg/kg, iv; format: ADME, organism-based, Canis lupus familiaris; design: dose 1 mg/kg, route intravenous; conditions: in vivo
[25] = AUC (0 to 24 hrs) in cynomolgus monkey at 1 mg/kg, iv; format: ADME, organism-based, Macaca fascicularis; design: time < 24 hr, dose 1 mg/kg, route intravenous; conditions: plasma

Chain of Tyrosine-protein kinase JAK2 (O60674 whole entry): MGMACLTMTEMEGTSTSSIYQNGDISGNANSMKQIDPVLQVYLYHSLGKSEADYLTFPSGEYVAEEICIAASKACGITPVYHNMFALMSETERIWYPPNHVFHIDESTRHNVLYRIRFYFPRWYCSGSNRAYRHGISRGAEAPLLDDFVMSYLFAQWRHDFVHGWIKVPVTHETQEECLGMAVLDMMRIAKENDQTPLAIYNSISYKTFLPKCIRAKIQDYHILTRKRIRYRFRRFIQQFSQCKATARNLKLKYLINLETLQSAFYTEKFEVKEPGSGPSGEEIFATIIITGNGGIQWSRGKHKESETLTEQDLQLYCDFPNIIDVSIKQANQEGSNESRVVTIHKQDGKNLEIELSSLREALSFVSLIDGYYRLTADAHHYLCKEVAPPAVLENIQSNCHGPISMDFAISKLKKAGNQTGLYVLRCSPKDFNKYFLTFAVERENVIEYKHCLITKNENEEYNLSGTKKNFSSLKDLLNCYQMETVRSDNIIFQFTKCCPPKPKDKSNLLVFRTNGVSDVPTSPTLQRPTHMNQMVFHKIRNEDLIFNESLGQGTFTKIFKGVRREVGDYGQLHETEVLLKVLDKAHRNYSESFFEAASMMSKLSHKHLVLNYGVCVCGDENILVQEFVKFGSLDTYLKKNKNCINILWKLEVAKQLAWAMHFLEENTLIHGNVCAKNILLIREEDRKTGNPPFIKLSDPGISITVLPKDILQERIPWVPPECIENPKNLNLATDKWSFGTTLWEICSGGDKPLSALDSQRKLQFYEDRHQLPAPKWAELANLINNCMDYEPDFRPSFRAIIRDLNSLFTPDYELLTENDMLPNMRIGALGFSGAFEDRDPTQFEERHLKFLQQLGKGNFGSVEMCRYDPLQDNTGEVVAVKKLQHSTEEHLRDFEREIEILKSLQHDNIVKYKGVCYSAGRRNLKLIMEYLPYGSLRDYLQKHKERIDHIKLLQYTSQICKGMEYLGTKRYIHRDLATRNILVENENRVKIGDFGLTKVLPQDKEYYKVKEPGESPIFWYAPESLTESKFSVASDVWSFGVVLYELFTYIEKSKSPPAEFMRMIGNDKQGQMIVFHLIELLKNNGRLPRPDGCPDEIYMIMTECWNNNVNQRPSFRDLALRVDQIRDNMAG
Chain of Tyrosine-protein kinase Lck (P06239 whole entry): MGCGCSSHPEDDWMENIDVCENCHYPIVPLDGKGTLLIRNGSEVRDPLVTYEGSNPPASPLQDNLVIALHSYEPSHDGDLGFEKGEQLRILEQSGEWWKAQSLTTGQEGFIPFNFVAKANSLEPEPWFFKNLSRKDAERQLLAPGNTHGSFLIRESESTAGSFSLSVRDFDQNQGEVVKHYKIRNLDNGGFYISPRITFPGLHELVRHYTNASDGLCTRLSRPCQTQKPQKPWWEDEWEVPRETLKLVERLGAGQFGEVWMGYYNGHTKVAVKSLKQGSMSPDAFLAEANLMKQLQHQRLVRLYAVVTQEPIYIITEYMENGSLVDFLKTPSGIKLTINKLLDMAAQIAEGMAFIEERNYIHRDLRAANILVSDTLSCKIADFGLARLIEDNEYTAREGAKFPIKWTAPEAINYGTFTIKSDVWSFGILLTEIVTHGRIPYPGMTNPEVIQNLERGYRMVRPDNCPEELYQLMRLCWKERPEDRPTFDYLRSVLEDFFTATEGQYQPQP

IC50 [1]: > 100 nM | IC50 [2]: < 1 nM | IC50 [3]: > 100 nM
Structure (SMILES): CCN(Cc1cc(Nc2nc(C)cn3c(-c4cn[nH]c4)cnc23)sn1)C(C)(C)CO

AUC(0-t) at 24 h [4]: 2.6 µM·h | bioavailability [5]: 19% | bioavailability [6]: 20% | bioavailability [7]: 2% | AUC(0-t) at 24 h [8]: 0.4 µM·h | AUC [9]: 6.9 µM·h | clearance [10]: 127 mL/min/kg | AUC [11]: 2.6 µM·h | clearance [12]: 31 mL/min/kg | AUC(0-t) at 24 h [13]: 0.7 µM·h | IC50 [14]: 1000 nM | clearance [15]: 18 mL/min/kg | AUC(0-t) at 24 h [16]: 1.7 µM·h | AUC [17]: 0.8 µM·h | AUC [18]: 9.4 µM·h | AUC(0-t) at 24 h [19]: 0.9 µM·h
Structure (SMILES): Cc1cn2c(-c3cn[nH]c3)cnc2c(Nc2cc(CN3CCC(F)(F)C3)ns2)n1.Cl

AUC (Canis familiaris [20]): 9 µM·h | AUC (Canis familiaris [21]): 3.1 µM·h | bioavailability [5]: 33% | F (Canis familiaris [22]): 33% | clearance [23]: 4.2 mL/min/kg | clearance [10]: 20.3 mL/min/kg | IC50 [14]: 640 nM | clearance [24]: 4.5 mL/min/kg | AUC(0-t) at 24 h [16]: 5.1 µM·h | AUC(0-t) at 24 h [25]: 9.5 µM·h | AUC(0-t) at 24 h [19]: 5.9 µM·h
Structure (SMILES): Cl.[2H]C([2H])(c1cc(Nc2nc(C)cn3c(-c4cn[nH]c4)cnc23)sn1)N1CCC(F)(F)C1
inhibition in vivo at 100 mg/kg (Mus musculus): 83%
